In this test the target is T1, human ENT1 (Homo sapiens, UniProt Q99808).
T1 construct: JAR cells expressing ENT1 were purchased from ATCC; host or cells: JAR cells
T1 sequence (Q99808 1-456): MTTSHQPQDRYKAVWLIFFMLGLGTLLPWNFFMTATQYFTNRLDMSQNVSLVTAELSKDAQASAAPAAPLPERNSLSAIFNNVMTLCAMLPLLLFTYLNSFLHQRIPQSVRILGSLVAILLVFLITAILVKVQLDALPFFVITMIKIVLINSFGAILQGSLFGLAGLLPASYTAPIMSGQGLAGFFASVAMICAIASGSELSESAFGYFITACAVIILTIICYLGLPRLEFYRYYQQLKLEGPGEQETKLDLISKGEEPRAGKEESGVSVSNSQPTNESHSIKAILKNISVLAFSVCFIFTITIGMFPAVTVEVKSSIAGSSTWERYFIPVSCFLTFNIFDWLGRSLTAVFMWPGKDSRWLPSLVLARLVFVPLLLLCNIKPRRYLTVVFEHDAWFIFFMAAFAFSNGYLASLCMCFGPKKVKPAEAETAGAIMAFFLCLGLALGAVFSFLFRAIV
The test can be described thus: ENT1 binding assay (competition with Sahenta-DY647 on JAR cells). The following applies: competition with SAHENTA-DY647 binding; IC50 categorized; read-out: Binding Assay IC50. In outline: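 Whole-cell competition on JAR cells (native ENT1): 50,000 cells pre-incubated 30 min at 4 °C with compound in HBSS/10 mM Hepes/0.1% BSA, then 100 nM Sahenta-DY647 added for 30 min at 4 °C. After washing, fluorescence (Ex 630/Em 670 nm) read; IC50 from sigmoidal fit, averaged as pIC50.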

Some results are limits rather than exact numbers.

With `C[C@H]1O[C@@H](n2c(NCC3CCOC3)nc3c(OCc4ccc(Cl)cc4)ncnc32)[C@H](O)[C@@H]1O` (some centres unmarked) [Compound 110], the IC50 is 20 to 500 nM.

Turning to `C[C@H]1O[C@@H](n2cnc3c(OCc4ccc5cnn(C)c5c4)ncnc32)[C@H](O)[C@@H]1O` [Compound 333], the IC50 is more than 500 nM.

With `C[C@H]1O[C@@H](n2c(NCC3COC3)nc3c(OCc4ccc(Cl)cc4)ncnc32)[C@H](O)[C@@H]1O` [Compound 423], the IC50 was more than 500 nM.

On to `C[C@H]1O[C@@H](n2cnc3c(OCc4ccc(C(F)(F)F)cc4Cl)ncnc32)[C@H](O)[C@@H]1O` [Compound 307], for which the IC50 was more than 500 nM.

Take `Cc1cc2cc(CNc3ncnc4c3ncn4[C@@H]3O[C@H](C)[C@@H](O)[C@H]3O)ccc2[nH]1` [Compound 339]: the 50% inhibitory concentration (IC50) is more than 500 nM.

For the compound `C[C@H]1O[C@@H](n2cnc3c(C(=O)NCc4ccc(Cl)cc4)ncnc32)[C@H](O)[C@@H]1O` [Compound 353], the IC50 was more than 500 nM.

For `C[C@H]1O[C@@H](n2cnc3c(SCc4ccc(C(F)(F)F)nc4)ncnc32)[C@H](O)[C@@H]1O` [Compound 270], the IC50 was more than 500 nM.

In the case of `Cc1noc(CSc2ncnc3c2ncn3[C@@H]2O[C@H](C)[C@@H](O)[C@H]2O)n1` [Compound 397], the 50% inhibitory concentration (IC50) is more than 500 nM.

In the case of `C[C@H]1O[C@@H](n2cnc3c(NCc4ccc(N5CCOCC5)cc4)ncnc32)[C@H](O)[C@@H]1O` [Compound 385], the concentration for half-maximal inhibition (IC50) was more than 500 nM.

With `C[C@H]1O[C@@H](n2cnc3c(OC4CCc5ccc([N+](=O)[O-])cc5C4)ncnc32)[C@H](O)[C@@H]1O` (some centres unmarked) [Compound 228], the IC50 is more than 500 nM.

For `CNc1nc2c(OCc3ccccc3)ncnc2n1[C@@H]1O[C@H](C)[C@@H](O)[C@H]1O` [Compound 264], the concentration for half-maximal inhibition (IC50) was more than 500 nM.

Turning to `CC(C)Nc1nc2c(N3CCc4ccc([N+](=O)[O-])cc4C3)ncnc2n1[C@@H]1O[C@H](C)[C@@H](O)[C@H]1O` [Compound 149], the 50% inhibitory concentration (IC50) was in the range of 1 to 20 nM.

Take `C[C@H]1O[C@@H](n2c(NCCO)nc3c(OCc4ccc(OC(F)F)cc4)ncnc32)[C@H](O)[C@@H]1O` [Compound 42]: the 50% inhibitory concentration (IC50) lay in the range of 1 to 20 nM.

Regarding `C[C@H]1O[C@@H](n2cnc3c(SCc4cccc(S(N)(=O)=O)c4)ncnc32)[C@H](O)[C@@H]1O` [Compound 273], the IC50 is more than 500 nM.

In the case of `C[C@H]1O[C@@H](n2c(NCCCS(C)(=O)=O)nc3c(OCc4ccc(C#N)cc4)ncnc32)[C@H](O)[C@@H]1O` [Compound 61], the concentration for half-maximal inhibition (IC50) fell in the range of 20 to 500 nM.

Regarding `C[C@H]1O[C@@H](n2c(N[C@H]3CC[C@@](C)(O)CC3)nc3c(OCc4ccc(C#N)cc4)ncnc32)[C@H](O)[C@@H]1O` [Compound 131], the IC50 fell in the range of 1 to 20 nM.

For the compound `C[C@H]1O[C@@H](n2cnc3c(NCc4cccc(C(=O)N(C)C)c4)ncnc32)[C@H](O)[C@@H]1O` [Compound 379], the 50% inhibitory concentration (IC50) was more than 500 nM.

As to `C[C@H]1O[C@@H](n2cnc3c(C(=O)NCc4ccc(OC(F)F)cc4)ncnc32)[C@H](O)[C@@H]1O` [Compound 301], the 50% inhibitory concentration (IC50) was more than 500 nM.

As to `C[C@H]1O[C@@H](n2cnc3c(OCc4ccc(-c5ccncc5)cc4)ncnc32)[C@H](O)[C@@H]1O` [Compound 364], the IC50 is more than 500 nM.

Turning to `C[C@H]1O[C@@H](n2c(Nc3cn[nH]c3)nc3c(OCc4ccc([N+](=O)[O-])cc4)ncnc32)[C@H](O)[C@@H]1O` [Compound 35], the half-inhibitory concentration (IC50) was less than 1 nM.

Regarding `C[C@H]1O[C@@H](n2c(N[C@H]3CC[C@](C)(O)CC3)nc3c(OCc4ccc(F)cc4)ncnc32)[C@H](O)[C@@H]1O` [Compound 129], the IC50 lay in the range of 1 to 20 nM.

On to `C[C@H]1O[C@@H](n2cnc3c(SCc4cccnn4)ncnc32)[C@H](O)[C@@H]1O` [Compound 393], for which the 50% inhibitory concentration (IC50) is more than 500 nM.

As for `C[C@H]1O[C@@H](n2cnc3c(SCc4ccc(S(=O)(=O)N(C)C)cc4)ncnc32)[C@H](O)[C@@H]1O` [Compound 366], the 50% inhibitory concentration (IC50) was more than 500 nM.

In the case of `C[C@H]1O[C@@H](n2cnc3c(OCc4ccc(F)c(F)c4)ncnc32)[C@H](O)[C@@H]1O` [Compound 201], the 50% inhibitory concentration (IC50) is 20 to 500 nM.

For `C[C@H]1O[C@@H](n2cnc3c(OCCc4cc(F)c(C#N)c(F)c4)ncnc32)[C@H](O)[C@@H]1O` [Compound 223], the IC50 was more than 500 nM.

`C[C@H]1O[C@@H](n2cnc3c(SCc4ccc(OCC(F)(F)F)cc4)ncnc32)[C@H](O)[C@@H]1O` [Compound 207]: the IC50 fell in the range of 20 to 500 nM.

As for `CC(CCO)Nc1nc2c(OCc3ccc(F)cc3)ncnc2n1[C@@H]1O[C@H](C)[C@@H](O)[C@H]1O` (some centres unmarked) [Compound 98], the IC50 fell in the range of 1 to 20 nM.

In the case of `C[C@H]1O[C@@H](n2cnc3c(OCCc4ccc(OCF)nc4)ncnc32)[C@H](O)[C@@H]1O` [Compound 336], the half-inhibitory concentration (IC50) is more than 500 nM.

With `C[C@H]1O[C@@H](n2c(NCCCS(C)(=O)=O)nc3c(OCc4ccc([N+](=O)[O-])cc4)ncnc32)[C@H](O)[C@@H]1O` [Compound 60], the IC50 is 1 to 20 nM.

Take `C[C@H]1O[C@@H](n2cnc3c(OCc4ccc(C(F)(F)F)cc4)ncnc32)[C@H](O)[C@@H]1O` [Compound 204]: the concentration for half-maximal inhibition (IC50) is 20 to 500 nM.

Turning to `C[C@H]1O[C@@H](n2cnc3c(NC(=O)c4ccc([N+](=O)[O-])cc4)ncnc32)[C@H](O)[C@@H]1O` [Compound 412], the IC50 is more than 500 nM.

Take `C[C@H]1O[C@@H](n2c(NCC3COC3)nc3c(OCc4ccc(OC(F)F)cc4)ncnc32)[C@H](O)[C@@H]1O` [Compound 424]: the IC50 was more than 500 nM.

Consider `C[C@H]1O[C@@H](n2c(Nc3cnn(C)c3)nc3c(N4CCc5ccc([N+](=O)[O-])cc5C4)ncnc32)[C@H](O)[C@@H]1O` [Compound 142], for which the half-inhibitory concentration (IC50) is less than 1 nM.

As to `C[C@H]1O[C@@H](n2c(-c3cn[nH]c3)nc3c(OCc4ccc([N+](=O)[O-])cc4)ncnc32)[C@H](O)[C@@H]1O` [Compound 208], the IC50 was in the range of 20 to 500 nM.

Turning to `CCNc1nc2c(N3CCc4ccc(C#N)cc4C3)ncnc2n1[C@@H]1O[C@H](C)[C@@H](O)[C@H]1O` [Compound 198], the IC50 is 20 to 500 nM.

For the compound `C[C@H]1O[C@@H](n2c(N[C@H]3C[C@@](C)(O)C3)nc3c(OCc4ccc(C#N)cc4)ncnc32)[C@H](O)[C@@H]1O` [Compound 119], the IC50 is 20 to 500 nM.

Consider `C[C@H]1O[C@@H](n2cnc3c(NCc4ccc(N5CCCC5=O)cc4)ncnc32)[C@H](O)[C@@H]1O` [Compound 387], for which the IC50 was more than 500 nM.

For `Cc1nc(OCc2ccc([N+](=O)[O-])cc2)c2ncn([C@@H]3O[C@H](C)[C@@H](O)[C@H]3O)c2n1` [Compound 259], the half-inhibitory concentration (IC50) is more than 500 nM.

As for `C[C@H]1O[C@@H](n2cnc3c(OCCc4ccc([N+](=O)[O-])nc4)ncnc32)[C@H](O)[C@@H]1O` [Compound 248], the half-maximal inhibitory concentration (IC50) was more than 500 nM.

With `C[C@H]1O[C@@H](n2c(O)nc3c(OCc4ccc([N+](=O)[O-])cc4)ncnc32)[C@H](O)[C@@H]1O` [Compound 247], the 50% inhibitory concentration (IC50) is more than 500 nM.

As to `C[C@H]1O[C@@H](n2c(NC3CCCC3)nc3c(OCc4ccc(C(F)(F)F)nc4)ncnc32)[C@H](O)[C@@H]1O` [Compound 93], the IC50 was in the range of 20 to 500 nM.

In the case of `CCNc1nc2c(OCc3ccc(C#N)cc3)ncnc2n1[C@@H]1O[C@H](C)[C@@H](O)[C@H]1O` [Compound 37], the half-inhibitory concentration (IC50) fell in the range of 1 to 20 nM.

As for `Cc1ccc(CNc2ncnc3c2ncn3[C@@H]2O[C@H](C)[C@@H](O)[C@H]2O)cc1C` [Compound 320], the concentration for half-maximal inhibition (IC50) is more than 500 nM.

With `COCCCNc1nc2c(OCc3ccc(C#N)cc3)ncnc2n1[C@@H]1O[C@H](C)[C@@H](O)[C@H]1O` [Compound 45], the IC50 was 1 to 20 nM.

As a reminder, the IC50 is the concentration that inhibits the measured activity by half.

Values taken from US20260184712A1, “Heterocyclic Compounds as ENT Inhibitors and Compounds for Use in the Treatment of Cancers” (iTeos Belgium SA, priority 2022, published 2026).
